Results as given in PubChem BioAssay (NCI).
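Following 48 hours of exposure in 96-well plates, responses at five concentrations were used to interpolate endpoints linearly. GI50 is the concentration that inhibits growth by half. TGI is the concentration that stops growth completely.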

Columns and labels:
Experiment in all cases: NCI-60 cell line screen, 48 h
786-0 renal = system: 786-0 renal
A498 renal = system: A498 renal
A549 NSCLC = system: A549 NSCLC
ACHN renal = system: ACHN renal
BT-549 breast = system: BT-549 breast
CAKI-1 renal = system: CAKI-1 renal
CCRF-CEM leukemia = system: CCRF-CEM leukemia
COLO 205 colon = system: COLO 205 colon
DU-145 prostate = system: DU-145 prostate
EKVX NSCLC = system: EKVX NSCLC
HCC-2998 colon = system: HCC-2998 colon
HCT-116 colon = system: HCT-116 colon
HCT-15 colon = system: HCT-15 colon
HL-60(TB) leukemia = system: HL-60(TB) leukemia
HOP-62 NSCLC = system: HOP-62 NSCLC
HOP-92 NSCLC = system: HOP-92 NSCLC
HS 578T breast = system: HS 578T breast
HT29 colon = system: HT29 colon
IGROV1 ovarian = system: IGROV1 ovarian
K-562 leukemia = system: K-562 leukemia
KM12 colon = system: KM12 colon
LOX IMVI melanoma = system: LOX IMVI melanoma
M14 melanoma = system: M14 melanoma
MALME-3M melanoma = system: MALME-3M melanoma
MCF7 breast = system: MCF7 breast
MDA-MB-231 breast = system: MDA-MB-231 breast
MDA-MB-435 = system: MDA-MB-435
MDA-MB-468 breast = system: MDA-MB-468 breast
MOLT-4 leukemia = system: MOLT-4 leukemia
NCI-H226 lung = system: NCI-H226 lung
NCI-H23 lung = system: NCI-H23 lung
NCI-H460 lung = system: NCI-H460 lung
NCI-H522 lung = system: NCI-H522 lung
NCI/ADR-RES ovarian = system: NCI/ADR-RES ovarian
OVCAR-3 ovarian = system: OVCAR-3 ovarian
OVCAR-4 ovarian = system: OVCAR-4 ovarian
OVCAR-5 ovarian = system: OVCAR-5 ovarian
OVCAR-8 ovarian = system: OVCAR-8 ovarian
PC-3 prostate = system: PC-3 prostate
RPMI-8226 leukemia = system: RPMI-8226 leukemia
RXF 393 renal = system: RXF 393 renal
SF-268 CNS = system: SF-268 CNS
SF-295 CNS = system: SF-295 CNS
SF-539 CNS = system: SF-539 CNS
SK-MEL-2 melanoma = system: SK-MEL-2 melanoma
SK-MEL-28 melanoma = system: SK-MEL-28 melanoma
SK-MEL-5 melanoma = system: SK-MEL-5 melanoma
SK-OV-3 ovarian = system: SK-OV-3 ovarian
SN12C renal = system: SN12C renal
SNB-19 CNS = system: SNB-19 CNS
SNB-75 CNS = system: SNB-75 CNS
SR leukemia = system: SR leukemia
SW-620 colon = system: SW-620 colon
T-47D breast = system: T-47D breast
TK-10 renal = system: TK-10 renal
U251 CNS = system: U251 CNS
UACC-257 melanoma = system: UACC-257 melanoma
UACC-62 melanoma = system: UACC-62 melanoma
UO-31 renal = system: UO-31 renal

Nc1ccc(-c2ccc3ncnc(N4CCc5cc(F)c(Cl)cc54)c3c2)cn1
GI50 (786-0 renal): 1.82 µM
TGI (786-0 renal): 14.7 µM
GI50 (A498 renal): 0.185 µM
TGI (A498 renal): 2.56 µM
GI50 (A549 NSCLC): 1.55 µM
TGI (A549 NSCLC): 15.3 µM
GI50 (ACHN renal): 0.739 µM
TGI (ACHN renal): 12.9 µM
GI50 (BT-549 breast): 1.35 µM
TGI (BT-549 breast): 8.24 µM
GI50 (CAKI-1 renal): 1.11 µM
TGI (CAKI-1 renal): 12.7 µM
GI50 (CCRF-CEM leukemia): 3.31 µM
TGI (CCRF-CEM leukemia): 26.2 µM
GI50 (COLO 205 colon): 5.58 µM
TGI (COLO 205 colon): 21.2 µM
GI50 (DU-145 prostate): 1.61 µM
TGI (DU-145 prostate): 15.8 µM
GI50 (EKVX NSCLC): 1.26 µM
TGI (EKVX NSCLC): 13.8 µM
GI50 (HCC-2998 colon): 4.3 µM
TGI (HCC-2998 colon): 66.1 µM
GI50 (HCT-116 colon): 3.91 µM
TGI (HCT-116 colon): 28.3 µM
GI50 (HCT-15 colon): 3.49 µM
TGI (HCT-15 colon): 30.3 µM
GI50 (HL-60(TB) leukemia): 2.61 µM
TGI (HL-60(TB) leukemia): 20.8 µM
GI50 (HOP-62 NSCLC): 1.5 µM
TGI (HOP-62 NSCLC): 27.3 µM
GI50 (HOP-92 NSCLC): 2.37 µM
TGI (HOP-92 NSCLC): 20.7 µM
GI50 (HS 578T breast): 1.14 µM
TGI (HS 578T breast): 4.6 µM
GI50 (HT29 colon): 3.26 µM
TGI (HT29 colon): 23 µM
GI50 (IGROV1 ovarian): 0.639 µM
TGI (IGROV1 ovarian): 2.88 µM
GI50 (K-562 leukemia): 6.24 µM
TGI (K-562 leukemia): > 100 µM
GI50 (KM12 colon): 6.73 µM
TGI (KM12 colon): 75.5 µM
GI50 (LOX IMVI melanoma): 3.31 µM
TGI (LOX IMVI melanoma): 24.6 µM
GI50 (M14 melanoma): 3.69 µM
TGI (M14 melanoma): 18 µM
GI50 (MALME-3M melanoma): 1.57 µM
TGI (MALME-3M melanoma): 10.1 µM
GI50 (MCF7 breast): 1.77 µM
TGI (MCF7 breast): 12.8 µM
GI50 (MDA-MB-231 breast): 2.84 µM
TGI (MDA-MB-231 breast): 15.2 µM
GI50 (MDA-MB-435): 3.67 µM
TGI (MDA-MB-435): 16.9 µM
GI50 (MDA-MB-468 breast): 0.657 µM
TGI (MDA-MB-468 breast): 2.31 µM
GI50 (MOLT-4 leukemia): 2.68 µM
TGI (MOLT-4 leukemia): 8.4 µM
GI50 (NCI-H226 lung): 1.59 µM
TGI (NCI-H226 lung): 40.8 µM
GI50 (NCI-H23 lung): 5.26 µM
TGI (NCI-H23 lung): > 100 µM
GI50 (NCI-H460 lung): 2.73 µM
TGI (NCI-H460 lung): 15.8 µM
GI50 (NCI-H522 lung): 2.37 µM
TGI (NCI-H522 lung): 19.4 µM
GI50 (NCI/ADR-RES ovarian): 3.2 µM
TGI (NCI/ADR-RES ovarian): 35.5 µM
GI50 (OVCAR-3 ovarian): 1.35 µM
TGI (OVCAR-3 ovarian): 12.3 µM
GI50 (OVCAR-4 ovarian): 3.11 µM
TGI (OVCAR-4 ovarian): 18.8 µM
GI50 (OVCAR-5 ovarian): 2.32 µM
TGI (OVCAR-5 ovarian): > 100 µM
GI50 (OVCAR-8 ovarian): 4.31 µM
TGI (OVCAR-8 ovarian): > 100 µM
GI50 (PC-3 prostate): 2.3 µM
TGI (PC-3 prostate): 27 µM
GI50 (RPMI-8226 leukemia): 3.51 µM
TGI (RPMI-8226 leukemia): 70.1 µM
GI50 (RXF 393 renal): 1.14 µM
TGI (RXF 393 renal): 5.22 µM
GI50 (SF-268 CNS): 2.2 µM
TGI (SF-268 CNS): 50.2 µM
GI50 (SF-295 CNS): 2.39 µM
TGI (SF-295 CNS): 16 µM
GI50 (SF-539 CNS): 2.83 µM
TGI (SF-539 CNS): 13.3 µM
GI50 (SK-MEL-2 melanoma): 5.55 µM
TGI (SK-MEL-2 melanoma): 44.6 µM
GI50 (SK-MEL-28 melanoma): 2.76 µM
TGI (SK-MEL-28 melanoma): 15.3 µM
GI50 (SK-MEL-5 melanoma): 3.07 µM
TGI (SK-MEL-5 melanoma): 14.4 µM
GI50 (SK-OV-3 ovarian): 2.18 µM
TGI (SK-OV-3 ovarian): 7.09 µM
GI50 (SN12C renal): 2.11 µM
TGI (SN12C renal): > 100 µM
GI50 (SNB-19 CNS): 2.86 µM
TGI (SNB-19 CNS): 47.8 µM
GI50 (SNB-75 CNS): 0.545 µM
TGI (SNB-75 CNS): 4.21 µM
GI50 (SR leukemia): 3.24 µM
TGI (SR leukemia): > 100 µM
GI50 (SW-620 colon): 5.96 µM
TGI (SW-620 colon): 27.5 µM
GI50 (T-47D breast): 0.895 µM
TGI (T-47D breast): 10.2 µM
GI50 (TK-10 renal): 0.504 µM
TGI (TK-10 renal): 9.78 µM
GI50 (U251 CNS): 3.3 µM
TGI (U251 CNS): 24.6 µM
GI50 (UACC-257 melanoma): 5.76 µM
TGI (UACC-257 melanoma): 23.1 µM
GI50 (UACC-62 melanoma): 1.91 µM
TGI (UACC-62 melanoma): 14.6 µM
GI50 (UO-31 renal): 0.823 µM
TGI (UO-31 renal): 14.5 µM
